Reference: patent US20200048305A1, “GLUTATHIONE-CHOLESTEROL DERIVATIVES AS BRAIN TARGETING AGENTS” (South Dakota Board of Regents, priority 2018, published 2020)

Columns and labels:
[1] = Brain-targeting of GUNW-3 DiR micelles, in-vivo whole body fluorescence imaging
[2] = Chemical stability of GUNW-3 in methanol-ammonium aqueous solution; assay type: physicochemical; details: methanol-ammonium aqueous solution (1:1), pH 10.8, 4° C., checked 7 days
Procedure: The stability of GUNW-3 in a methanol-ammonium aqueous solution (1:1) at pH 10.8, the pH GUNW-3 was soluble, was checked continuously for 7 days at 4° C. (FIG. 4). […] However, it started to decompose quickly after 3 days.

[3] = test system: NCI-H226 cells (human lung cancer cells); test: In-vitro cytotoxicity by the MTT assay, NCI-H226 cells; assay type: cell-based
[4] = test system: CV-1 cells (monkey kidney cells); test: In-vitro cytotoxicity by the MTT assay, CV-1 cells; assay type: cell-based; details: Primates

presence in the spinal cord ([1]; mice, lateral image at 1 h)	brain distribution (lateral images) ([1]; mice, tail vein injection, 5 μg DiR, lateral images at 1 h)	SMILES	distribution in liver ([1]; when delivered in micelles)	stability of GUNW-3 [2]	IC50 [3] [µM]	IC50 [4] [µM]
not observed	no significant brain distribution	CCCCCCCCCCCCCCCCCCN1/C(=C/C=C/C=C/C=C/C2=[N+](CCCCCCCCCCCCCCCCCC)c3ccccc3C2(C)C)C(C)(C)c2ccccc21.[I-] [free DiR]				
		CC(C)CCCC(C)C1CCC2C3CC=C4CC(OCCOCCOC(=O)CCSCC(NC(=O)CCC(N)C(=O)O)C(=O)NCC(=O)O)CC[C@@]4(C)C3CC[C@@]12C (stereo partly drawn) [GUNW-3]	low distribution in liver	stable in the first 3 days	470	650
